Patent US7626031B2, “Substituted 3-(diarylmethylene)indolin-2-ones and methods of their use” (Symphony Evolution, Inc., priority 2002, dated 2009)

What was measured:
[1] = biological target: T1, KDR (baculovirus expressed human KDR kinase domain D807-V1356) (Homo sapiens, UniProt P35968); test: biochemical
T1 construct: human KDR kinase domain D807-V1356; host or cells: baculovirus expression system
Outline: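 Luciferase-coupled chemiluminescence quantifies ATP left after a 4 h room-temperature reaction of KDR kinase domain (D807–V1356, baculovirus-expressed human). ATP set close to KM; inhibitors tested at 10 concentrations.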

EphA2 = EphA2 (Homo sapiens, UniProt P29317); test: Kinase assay, EphA2 (33P-ATP incorporation or luciferase-coupled ATP consumption); type: biochemical
Sequence of EphA2 (P29317 24-976, species assumed): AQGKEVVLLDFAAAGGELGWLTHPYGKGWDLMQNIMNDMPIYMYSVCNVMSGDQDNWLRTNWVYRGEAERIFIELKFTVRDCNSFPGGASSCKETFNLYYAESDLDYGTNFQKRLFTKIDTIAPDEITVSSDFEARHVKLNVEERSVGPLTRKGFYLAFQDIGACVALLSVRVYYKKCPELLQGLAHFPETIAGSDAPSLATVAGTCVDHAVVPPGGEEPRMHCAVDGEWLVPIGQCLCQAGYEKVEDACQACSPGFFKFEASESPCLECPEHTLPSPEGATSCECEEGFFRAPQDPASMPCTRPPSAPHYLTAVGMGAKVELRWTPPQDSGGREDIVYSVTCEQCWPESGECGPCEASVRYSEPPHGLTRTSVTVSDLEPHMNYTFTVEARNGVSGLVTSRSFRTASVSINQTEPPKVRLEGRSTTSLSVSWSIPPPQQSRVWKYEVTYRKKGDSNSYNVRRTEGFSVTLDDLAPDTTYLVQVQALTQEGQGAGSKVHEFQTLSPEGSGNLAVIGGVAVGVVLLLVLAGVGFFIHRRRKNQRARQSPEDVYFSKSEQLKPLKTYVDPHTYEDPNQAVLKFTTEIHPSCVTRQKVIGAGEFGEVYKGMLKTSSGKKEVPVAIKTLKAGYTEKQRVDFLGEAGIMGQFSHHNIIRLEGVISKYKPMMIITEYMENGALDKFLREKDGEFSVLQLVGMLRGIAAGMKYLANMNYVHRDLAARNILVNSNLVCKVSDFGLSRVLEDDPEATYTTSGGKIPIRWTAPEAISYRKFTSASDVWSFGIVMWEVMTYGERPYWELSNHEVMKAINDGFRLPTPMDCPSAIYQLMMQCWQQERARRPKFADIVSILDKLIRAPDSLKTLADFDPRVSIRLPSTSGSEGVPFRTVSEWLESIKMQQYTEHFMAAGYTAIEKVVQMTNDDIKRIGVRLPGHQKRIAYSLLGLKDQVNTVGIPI
Outline: (§1)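 Radiometric format: γ-33P ATP incorporation into plate-immobilized myelin basic protein, enzyme 10 nM or 20 nM, 10 μM or 30 μM unlabeled ATP, 1 h at room temperature, 1% DMSO, scintillation counting; alternatively luciferase-measured ATP consumption with pEY substrate. ATP set near each kinase's KM; 10-point dose-response.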

Flt-1 = Flt-1 (Homo sapiens, UniProt P17948); test: Kinase assay, Flt-1 (33P-ATP incorporation or luciferase-coupled ATP consumption); type: biochemical; details: read-out: Flt1 IC50
Sequence of Flt-1 (P17948 27-1338, species assumed): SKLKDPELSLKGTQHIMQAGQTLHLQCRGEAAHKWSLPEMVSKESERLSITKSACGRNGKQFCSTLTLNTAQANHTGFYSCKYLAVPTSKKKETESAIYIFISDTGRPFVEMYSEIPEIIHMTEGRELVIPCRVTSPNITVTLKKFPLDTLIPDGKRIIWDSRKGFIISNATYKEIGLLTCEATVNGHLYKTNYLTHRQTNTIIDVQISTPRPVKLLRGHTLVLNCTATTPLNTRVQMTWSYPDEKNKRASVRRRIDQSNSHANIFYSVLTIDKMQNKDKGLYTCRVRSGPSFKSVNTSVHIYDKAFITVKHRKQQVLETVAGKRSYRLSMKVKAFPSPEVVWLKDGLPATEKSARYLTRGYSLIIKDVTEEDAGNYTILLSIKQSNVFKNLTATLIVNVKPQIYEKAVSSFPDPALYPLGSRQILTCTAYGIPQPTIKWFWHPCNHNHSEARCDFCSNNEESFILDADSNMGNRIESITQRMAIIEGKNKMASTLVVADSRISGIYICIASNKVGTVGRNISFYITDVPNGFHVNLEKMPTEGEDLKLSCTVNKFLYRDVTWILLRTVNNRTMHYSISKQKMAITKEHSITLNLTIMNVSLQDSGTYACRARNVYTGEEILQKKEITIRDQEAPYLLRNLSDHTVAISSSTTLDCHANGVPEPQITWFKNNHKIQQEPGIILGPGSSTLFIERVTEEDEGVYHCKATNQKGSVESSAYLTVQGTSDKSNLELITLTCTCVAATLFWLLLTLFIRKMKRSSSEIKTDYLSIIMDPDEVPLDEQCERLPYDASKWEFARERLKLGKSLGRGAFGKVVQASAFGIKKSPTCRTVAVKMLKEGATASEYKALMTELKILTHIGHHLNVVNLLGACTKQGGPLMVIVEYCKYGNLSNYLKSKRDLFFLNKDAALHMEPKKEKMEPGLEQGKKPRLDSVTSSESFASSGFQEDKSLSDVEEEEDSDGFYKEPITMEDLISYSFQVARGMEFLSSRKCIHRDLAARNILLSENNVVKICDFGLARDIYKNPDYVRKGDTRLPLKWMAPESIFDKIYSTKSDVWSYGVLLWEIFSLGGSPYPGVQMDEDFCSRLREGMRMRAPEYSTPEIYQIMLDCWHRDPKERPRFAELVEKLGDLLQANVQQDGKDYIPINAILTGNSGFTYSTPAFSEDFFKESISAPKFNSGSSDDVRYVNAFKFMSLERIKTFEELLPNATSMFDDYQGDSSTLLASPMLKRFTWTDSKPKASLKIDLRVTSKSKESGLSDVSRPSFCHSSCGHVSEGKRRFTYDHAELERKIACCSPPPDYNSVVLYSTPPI
Method: Kinase assays were performed by measurement of incorporation of γ-^33P ATP into immobilized myelin basic protein (MBP). […] Plates were washed 3× with 100 μl TBS. […] Compound dilutions were performed in DMSO and added to assay wells to a final DMSO concentration of 1%. Each data point was measured in duplicate, and at least two duplicate assays were performed for each individual compound determination. Enzyme was added to final concentrations of 10 nM or 20 nM, for example. A mixture of unlabeled ATP and γ-^33P ATP was added to start the reaction (2×10^6 cpm of γ-^33P ATP per well (3000 Ci/mmole) and either 10 μM or 30 μM unlabeled ATP, typically. The reactions were carried out for 1 hour at room temperature with shaking. Plates were washed 7× with TBS, followed by the addition of 50 μl/well scintillation fluid (Wallac). Plates were read using a Wallac Trilux counter. This is only one format of such assays, various other formats are possible, as known to one of ordinary skill in the art.
Tyrosine kinase activity is determined by 1) measurement of kinase-dependent ATP consumption by in the presence of a generic substrate such as, polyglutamic acid, tyrosine, 4:1 (pEY), by luciferase/luciferin-mediated chemiluminescence or; 2) incorporation of radioactive phosphate derived from ^33P-ATP into a generic substrate which has been adsorbed onto the well surface of polystyrene microtiter plates. Phosphorylated substrate products are quantified by scintillation spectrometry.
(§2) Kinase activity and compound inhibition are investigated using one or more assay formats. The ATP concentrations for each assay are selected to be close to the Michaelis-Menten constant (KM) for each individual kinase. Dose-response experiments are performed at 10 different inhibitor concentrations in a 384-well plate format. […] Exemplary kinase assays are described below. KDR Assay

EGFR = EGFR (Homo sapiens, UniProt P00533); test: Kinase assay, EGFR (33P-ATP incorporation or luciferase-coupled ATP consumption); type: biochemical
Sequence of EGFR (P00533 25-1210, species assumed): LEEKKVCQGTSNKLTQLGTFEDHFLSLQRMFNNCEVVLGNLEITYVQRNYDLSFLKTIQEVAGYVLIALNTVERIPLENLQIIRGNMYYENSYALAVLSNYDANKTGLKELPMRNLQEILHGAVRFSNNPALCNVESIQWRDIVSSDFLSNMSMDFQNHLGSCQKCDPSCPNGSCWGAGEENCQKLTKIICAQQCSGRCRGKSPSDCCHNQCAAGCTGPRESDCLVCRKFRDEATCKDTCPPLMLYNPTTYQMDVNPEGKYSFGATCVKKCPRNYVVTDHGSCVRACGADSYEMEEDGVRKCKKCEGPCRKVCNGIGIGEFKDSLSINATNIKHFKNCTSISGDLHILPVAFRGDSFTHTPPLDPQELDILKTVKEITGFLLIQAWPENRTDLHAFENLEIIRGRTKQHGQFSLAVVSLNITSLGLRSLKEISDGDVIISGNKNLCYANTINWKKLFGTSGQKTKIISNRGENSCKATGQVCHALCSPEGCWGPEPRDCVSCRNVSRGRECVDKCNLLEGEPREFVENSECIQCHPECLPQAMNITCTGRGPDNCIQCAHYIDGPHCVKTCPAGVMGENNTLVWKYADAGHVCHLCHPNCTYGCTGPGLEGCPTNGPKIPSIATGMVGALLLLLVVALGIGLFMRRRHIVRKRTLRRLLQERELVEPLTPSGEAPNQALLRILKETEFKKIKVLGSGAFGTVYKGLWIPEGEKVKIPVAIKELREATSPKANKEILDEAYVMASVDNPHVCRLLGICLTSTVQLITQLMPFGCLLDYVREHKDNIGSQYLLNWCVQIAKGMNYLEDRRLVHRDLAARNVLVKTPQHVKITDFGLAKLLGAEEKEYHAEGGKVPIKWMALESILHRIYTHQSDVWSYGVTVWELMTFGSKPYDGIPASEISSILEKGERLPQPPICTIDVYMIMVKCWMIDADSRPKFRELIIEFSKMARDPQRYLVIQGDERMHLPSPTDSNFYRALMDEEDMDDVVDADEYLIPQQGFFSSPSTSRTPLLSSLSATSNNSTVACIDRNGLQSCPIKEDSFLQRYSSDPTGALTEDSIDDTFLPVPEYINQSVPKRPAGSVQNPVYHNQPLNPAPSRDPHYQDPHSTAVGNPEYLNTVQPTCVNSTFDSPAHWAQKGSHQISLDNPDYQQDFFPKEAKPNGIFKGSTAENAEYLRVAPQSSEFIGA
Outline: as §1

PDGFR alpha = PDGFR alpha (Homo sapiens, UniProt P16234); test: Kinase assay, PDGFR alpha (33P-ATP incorporation or luciferase-coupled ATP consumption); type: biochemical; details: read-out: PDGF-R-A IC50
Outline: as §1

Fyn = Fyn (Homo sapiens, UniProt P06241); test: Kinase assay, Fyn; type: biochemical
Sequence of Fyn (P06241 whole entry, species assumed): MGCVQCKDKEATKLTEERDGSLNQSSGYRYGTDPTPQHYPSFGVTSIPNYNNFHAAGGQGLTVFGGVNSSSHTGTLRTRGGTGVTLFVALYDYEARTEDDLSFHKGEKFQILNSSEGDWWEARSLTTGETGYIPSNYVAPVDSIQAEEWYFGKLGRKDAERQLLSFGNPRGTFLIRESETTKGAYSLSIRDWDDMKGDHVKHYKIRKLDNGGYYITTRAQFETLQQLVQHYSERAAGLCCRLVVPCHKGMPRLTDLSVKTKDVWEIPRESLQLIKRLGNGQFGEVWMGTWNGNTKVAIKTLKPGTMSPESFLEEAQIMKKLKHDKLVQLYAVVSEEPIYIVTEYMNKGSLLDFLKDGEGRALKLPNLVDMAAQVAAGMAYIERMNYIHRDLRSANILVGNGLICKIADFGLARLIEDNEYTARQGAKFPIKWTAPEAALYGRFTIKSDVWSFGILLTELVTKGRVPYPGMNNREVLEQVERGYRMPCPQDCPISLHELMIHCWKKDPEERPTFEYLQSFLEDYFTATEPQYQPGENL
Method: as §2

IRK = IRK (Homo sapiens, UniProt P06213); test: Kinase assay, IRK; type: biochemical
Method: as §2

T1 sequence (P35968 807-1356): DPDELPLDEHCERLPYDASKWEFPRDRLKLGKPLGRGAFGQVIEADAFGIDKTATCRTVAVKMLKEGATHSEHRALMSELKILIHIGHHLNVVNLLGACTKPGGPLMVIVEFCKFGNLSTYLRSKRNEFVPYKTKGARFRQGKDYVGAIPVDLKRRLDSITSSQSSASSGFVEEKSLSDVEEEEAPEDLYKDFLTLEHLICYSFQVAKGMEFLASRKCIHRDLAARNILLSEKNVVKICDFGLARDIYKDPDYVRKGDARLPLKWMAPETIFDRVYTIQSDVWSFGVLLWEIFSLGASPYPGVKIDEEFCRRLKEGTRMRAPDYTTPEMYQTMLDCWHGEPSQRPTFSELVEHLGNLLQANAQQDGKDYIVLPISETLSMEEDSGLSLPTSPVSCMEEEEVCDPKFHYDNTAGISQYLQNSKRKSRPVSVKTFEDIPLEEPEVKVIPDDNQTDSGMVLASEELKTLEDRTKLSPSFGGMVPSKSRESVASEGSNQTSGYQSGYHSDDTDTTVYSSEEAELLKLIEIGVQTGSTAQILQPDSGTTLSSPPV

SMILES	IC50 [1] [nM]	IC50 (EphA2) [nM]	IC50 (Flt-1) [nM]	IC50 (EGFR) [nM]	IC50 (PDGFR alpha) [nM]	IC50 (Fyn) [nM]	IC50 (IRK) [nM]
O=C1Nc2ccc(NC3CCNCC3)cc2/C1=C(\c1ccccc1)c1nc2ccccc2[nH]1 [Entry 22, (3Z)-3-[1H-benzimidazol-2-yl(phenyl)methylidene] -5-(piperidin-4-ylamino)-1,3-dihydro-2H-indol-2-one]	< 50	50 to 500	50 to 500	500 to 5000	< 50	< 50	50 to 500
CCN1CCC(Nc2ccc3c(c2)/C(=C(\c2cccc(C(=N)N)c2)c2nc4ccccc4[nH]2)C(=O)N3)CC1 [Entry 23, 3-((Z)-1H-benzimidazol-2-yl{5-[(1-ethylpiperidin-4-yl)amino]-2-oxo-1,2-dihydro-3H-indol-3-ylidene}methyl) benzenecarboximidamide]	500 to 5000	500 to 5000	500 to 5000	500 to 5000	500 to 5000	500 to 5000	500 to 5000
O=C1Nc2ccc(NC3CC4CCC(C3)N4)cc2/C1=C(\c1ccccc1)c1nc2ccccc2[nH]1 (centres unmarked) [Entry 31, (3Z)-5-(8-azabicyclo[3.2.1]oct-3-ylamino)-3-[1H-benzimidazol-2-yl(phenyl)methylidene]-1,3-dihydro-2H-indol-2-one]	50 to 500	500 to 5000	500 to 5000	500 to 5000	50 to 500	50 to 500	500 to 5000

Second part, the compound after the results:

IC50 [1] [nM]	IC50 (EphA2) [nM]	IC50 (Flt-1) [nM]	IC50 (EGFR) [nM]	IC50 (PDGFR alpha) [nM]	IC50 (Fyn) [nM]	IC50 (IRK) [nM]	SMILES
< 50	500 to 5000	50 to 500	500 to 5000	< 50	50 to 500	500 to 5000	CCN1CCC(Nc2ccc3c(c2)/C(=C(\c2cccc(N)c2)c2nc4ccccc4[nH]2)C(=O)N3)CC1 [Entry 21, (3Z)-3-[(3-aminophenyl) (1H-benzimidazol-2-yl)methylidene]-5-[(1-ethylpiperidin-4-yl)amino]-1,3-dihydro-2H-indol-2-one]
50 to 500	500 to 5000	500 to 5000	500 to 5000	50 to 500	500 to 5000	500 to 5000	CC1(C)CC(Nc2ccc3c(c2)/C(=C(\c2ccccc2)c2nc4ccccc4[nH]2)C(=O)N3)CC(C)(C)N1 [Entry 25, (3Z)-3-[1H-benzimidazol-2-yl(phenyl)methylidene]-5-[(2,2,6,6-tetramethylpiperidin-4-yl)amino]-1,3-dihydro-2H-indol-2-one]
< 50	500 to 5000	50 to 500	500 to 5000	< 50	50 to 500	500 to 5000	CCN1CCC(Nc2ccc3c(c2)/C(=C(\c2ccccc2)c2nc(CCN4C(=O)c5ccccc5C4=O)c[nH]2)C(=O)N3)CC1 [Entry 28, 2-(2-{2-[(Z)-{5-[(1-ethylpiperidin-4-yl)amino]-2-oxo-1,2-dihydro-3H-indol-3-ylidene}(phenyl)methyl]-1H-imidazol-4-yl}ethyl)-1H-isoindole-1,3(2H)-dione]
< 50	500 to 5000	500 to 5000	500 to 5000	50 to 500	50 to 500	500 to 5000	CN(C)CCN1CCC(Nc2ccc3c(c2)/C(=C(\c2ccccc2)c2nc4ccccc4[nH]2)C(=O)N3)CC1 [Entry 29, (3Z)-3-[1H-benzimidazol-2-yl(phenyl)methylidene]-5-({1-[2-(dimethylamino)ethyl]piperidin-4-yl}amino)-1,3-dihydro-2H-indol-2-one]
50 to 500	500 to 5000	500 to 5000	500 to 5000	500 to 5000	500 to 5000	500 to 5000	CS(=O)(=O)N1CCC(Nc2ccc3c(c2)/C(=C(\c2ccccc2)c2nc4ccccc4[nH]2)C(=O)N3)CC1 [Entry 30, (3Z)-3-[1H-benzimidazol-2-yl(phenyl)methylidene]-5-{[1-(methylsulfonyl)piperidin-4-yl]amino}-1,3-dihydro-2H-indol-2-one]
